From ChEMBL document CHEMBL1201862, “PubChem BioAssay data set” (2004) come the findings set out here.

Molecules are shown by their SMILES.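 Compound exposure: 48 hours, 5 concentrations, 96-well plates. Here, GI50 denotes the concentration required for 50% inhibition of growth.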 Active and inactive are the calls of the source. Rule as the data show it: active = GI50 up to about 1.1 µM and inactive = higher. Where a SMILES comes first, the peptide text is derived from it. Bridges are numbered along the chain shown (N, C = ends). [ ]: non-standard residue; d: D form. The star is where a group is joined. ξ: configuration not given here. ξNMePhe(4-NMe2) = CNC(Cc1ccc(N(C)C)cc1)C(=O)O; Picolinoyl(3-OH) = O=C(c1ncccc1O)*; ξPip(4-oxo) = O=C1CCNC(C(=O)O)C1; Phg = N[CH](C(=O)O)c1ccccc1; Abu = CC[CH](N)C(=O)O

Test systems include UACC-257; NCI-H226; TK-10; M14; OVCAR-8; SNB-75; NCI-H460; HOP-92; RXF 393; HL-60; OVCAR-4; SK-MEL-2; HOP-62; OVCAR-5; Malme-3M; T47D; ACHN; SF-295; U-251; SF-539.
Common to all, as to test: growth of human tumour cells (NCI), 48 h

Consider `Cc1cn(C2CCN(CC3COC(C)(C)O3)O2)c(=O)[nH]c1=O` (stereo not given), for which the GI50 with UACC-257, in the experiment on NCI-H226, with TK-10, in the experiment on M14, in the experiment with OVCAR-8 and with SNB-75 was > 100 µM (inactive) each time. For the same compound, the GI50 in the experiment on NCI-H460, in the experiment on HOP-92, with RXF 393, with HL-60, in the experiment with OVCAR-4 and in the experiment on SK-MEL-2 was > 100 µM (inactive) in each case. For the same compound, the GI50 in the experiment on HOP-62, in the experiment on OVCAR-5, in the experiment with Malme-3M, with T47D, with ACHN and in the experiment on SF-295 was > 100 µM (inactive) each time. The GI50 with U-251 and in the experiment with SF-539 was > 100 µM (inactive) in each case.

On to `COc1ccc2c(-c3cc4ccccc4o3)cc(=O)oc2c1`, for which the GI50 is 54.8 µM (inactive) with UACC-257; 58.5 µM (inactive) in the experiment with NCI-H226; 21.7 µM (inactive) in the experiment on TK-10; 75.7 µM (inactive) in the experiment on M14; 29.9 µM (inactive) in the experiment with OVCAR-8; 8.17 µM (inactive) with SNB-75. Further, the GI50 in the experiment on NCI-H460 is 44.7 µM (inactive); in the experiment with HOP-92, 24.3 µM (inactive); in the experiment on RXF 393 it was 18 µM (inactive); in the experiment on HL-60, > 100 µM (inactive); in the experiment on OVCAR-4, 22.8 µM (inactive); with SK-MEL-2, 66.5 µM (inactive). The GI50 in the experiment with HOP-62 is 13.3 µM (inactive); in the experiment with OVCAR-5, > 42.2 µM (inactive); with Malme-3M it was 71.1 µM (inactive); in the experiment with T47D, > 55 µM (inactive); in the experiment with ACHN, 39.4 µM (inactive); in the experiment with SF-295, 22.9 µM (inactive). For the same compound, the GI50 with U-251 is 24.3 µM (inactive); with SF-539 it was 16.7 µM (inactive).

`C[n+]1c2ccccc2n2c3ccccc3c(NCCCn3ccnc3)c(C#N)c21`: the GI50 in the experiment with UACC-257 is 3.85 µM (inactive); with NCI-H226, 2.85 µM (inactive); in the experiment with TK-10, 7.11 µM (inactive); with M14, 2.26 µM (inactive); with OVCAR-8, 1.55 µM (inactive); with SNB-75, 1.66 µM (inactive). For the same compound, the GI50 with NCI-H460 was 1.44 µM (inactive); in the experiment with HOP-92, 3.15 µM (inactive); with RXF 393, 0.923 µM (active); in the experiment with HL-60, 3.94 µM (inactive); in the experiment on OVCAR-4, 1.61 µM (inactive); in the experiment with SK-MEL-2, 1.62 µM (inactive). In addition, the GI50 is 2.03 µM (inactive) with HOP-62; 4.1 µM (inactive) with OVCAR-5; 1.9 µM (inactive) with Malme-3M; 1.61 µM (inactive) in the experiment on T47D; 3.48 µM (inactive) in the experiment with ACHN; 3.74 µM (inactive) with SF-295. Further, the GI50 in the experiment on U-251 was 2.18 µM (inactive); in the experiment with SF-539, 3.94 µM (inactive).

In the case of `CC1=C/C(O)CC(=O)Cc2nc(co2)C(=O)N2CCC=C2C(=O)OC(C(C)C)C(C)/C=C/C(=O)NC\C=C\1.CCC1NC(=O)C(NC(=O)c2ncccc2O)C(C)OC(=O)C(c2ccccc2)NC(=O)C2CC(=O)CCN2C(=O)C(Cc2ccc(N(C)C)cc2)N(C)C(=O)C2CCCN2C1=O` (stereo not given) ({Picolinoyl(3-OH)}-T[Abu]P[ξNMePhe(4-NMe2)][ξPip(4-oxo)][Phg]; ester 1-C; configuration not given here), the GI50 is 6.08 µM (inactive) in the experiment on UACC-257; 13.6 µM (inactive) in the experiment on NCI-H226; 27.2 µM (inactive) in the experiment on TK-10; 15 µM (inactive) in the experiment on M14; 25.6 µM (inactive) in the experiment on OVCAR-8; 24.7 µM (inactive) in the experiment on SNB-75. Also, the GI50 with NCI-H460 was 3.75 µM (inactive); with HOP-92 it was 3.78 µM (inactive); with RXF 393, 11.4 µM (inactive); with HL-60, 3.71 µM (inactive); in the experiment with OVCAR-4, 12.1 µM (inactive); in the experiment on SK-MEL-2, 7.21 µM (inactive). In addition, the GI50 in the experiment with HOP-62 was 14.6 µM (inactive); with OVCAR-5 it was 31.5 µM (inactive); in the experiment on Malme-3M, 12.8 µM (inactive); in the experiment on T47D, 15.4 µM (inactive); in the experiment with ACHN, 7.96 µM (inactive); in the experiment with SF-295, 3.66 µM (inactive). Moreover, the GI50 with U-251 is 11.7 µM (inactive); in the experiment with SF-539 it was 17.5 µM (inactive).
